Results: ChEMBL document CHEMBL5729615, “Inhibitors of protein arginine methyltransferase 5 (PRMT5), pharmaceutical products thereof, and methods thereof” (2023)

Biological target: PRMT5/MEP50 complex (Homo sapiens, UniProt O14744)
Test: 2.5 μL of compound solution in the assay buffer with 4% DMSO and 5 μL of PRMT5/MRP50 complex/SAM mixture solution in the assay buffer which was pre-incubated for 30 minutes were added into a white low volume 384 well microtiter plate. This mixture solution was incubated for 15 minutes with gentle shaking at room temperature. Methyl transfer reaction was initiated by adding 2.5 μL of Biotin-H4 (1-21) peptide substrate solution in the assay buffer. […] The reaction was allowed to perform for 120 minutes in dark with gentle shaking at room temperature after which 5 μL of Anti-H4R3-Me AlphaLISA acceptor beads in detection buffer from the manufacturer was added into the reaction mixture followed by incubation for 60 minutes. 10 μL of Streptavidin labeled AlphaLISA donor beads in detection buffer was added into the mixture followed by 30 minute incubation. Final acceptor and donor beads concentrations were 10 μg/mL.
Assay type: protein-complex assay

PRMT5/MEP50 complex, sequence (O14744 whole entry): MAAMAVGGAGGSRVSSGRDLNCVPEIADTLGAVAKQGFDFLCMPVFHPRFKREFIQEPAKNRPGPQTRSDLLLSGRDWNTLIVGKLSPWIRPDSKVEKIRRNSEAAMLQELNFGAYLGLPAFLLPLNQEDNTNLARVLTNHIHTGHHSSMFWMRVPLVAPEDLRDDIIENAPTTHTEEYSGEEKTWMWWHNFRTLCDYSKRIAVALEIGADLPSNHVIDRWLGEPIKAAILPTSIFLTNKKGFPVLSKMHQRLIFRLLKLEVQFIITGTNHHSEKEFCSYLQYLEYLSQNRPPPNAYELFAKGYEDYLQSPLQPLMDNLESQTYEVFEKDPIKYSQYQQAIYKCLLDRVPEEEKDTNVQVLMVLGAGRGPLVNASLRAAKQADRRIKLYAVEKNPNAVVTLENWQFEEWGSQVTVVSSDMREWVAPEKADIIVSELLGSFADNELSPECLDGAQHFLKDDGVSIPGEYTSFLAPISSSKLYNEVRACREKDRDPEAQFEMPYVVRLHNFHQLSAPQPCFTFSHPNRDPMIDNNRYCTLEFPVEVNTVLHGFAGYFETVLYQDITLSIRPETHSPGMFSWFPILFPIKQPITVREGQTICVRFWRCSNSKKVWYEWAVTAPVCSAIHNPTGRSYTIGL
PRMT5/MEP50 complex, sequence (Q9BQA1 whole entry, further chain): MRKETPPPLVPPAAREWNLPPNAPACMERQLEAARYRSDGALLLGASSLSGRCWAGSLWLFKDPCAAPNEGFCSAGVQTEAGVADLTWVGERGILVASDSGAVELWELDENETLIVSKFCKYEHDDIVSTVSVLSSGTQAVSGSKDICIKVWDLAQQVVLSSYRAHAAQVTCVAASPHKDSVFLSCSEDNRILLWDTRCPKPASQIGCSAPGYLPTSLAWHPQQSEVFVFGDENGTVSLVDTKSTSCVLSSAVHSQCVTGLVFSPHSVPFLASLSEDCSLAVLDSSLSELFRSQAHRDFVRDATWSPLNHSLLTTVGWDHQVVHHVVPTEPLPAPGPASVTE

IC50: 236 nM
SMILES: O=C1c2cc(NC3CCC3)ccc2CCN1CC(O)CN1CCc2ccccc2C1 (stereo unspecified)
